Experiment: Studies of glucosamine salts delivered by the transdermal delivery system
From the text: In accordance with the present invention, the above-indicated studies have shown that the transdermal delivery system described above can be used for delivering, for example, any glucosamine salt such as glucosamine hydrochloride, glucosamine sulfate, glucosamine sulfate stabilized with sodium chloride or potassium chloride.

## N[C@H]1C(O)O[C@H](CO)[C@@H](O)[C@@H]1O.O=S(=O)(O)O.[Cl-].[K+] (stereo partly shown) [glucosamine sulfate potassium chloride]
  bioavailability of glucosamine in blood plasma and synovial fluid among glucosamine salts: maximal bioavailability
